The subject of one assay is HeLa cells. Nature of the assay: Cellular uptake and intracellular distribution of rhodamine B-labeled peptoids by live-cell confocal imaging. Type of assay: cell-based, human. The note with it: 1 × 10^4 HeLa wt cells, 1 µM peptoid, 24 h, 37 °C, confocal fluorescence imaging, co-staining Hoechst 33342 and Mitotracker Green. On the procedure:
All procedures with mammalian cells were carried out under sterile conditions. 1 × 10^4 HeLa (human cervix carcinoma) cells were plated into each well of a 8-well µslide from IBIDI (Ibitreat, Martinsried, Germany) and cultured in 200 µL Dulbecco’s modified Eagle’s medium, high glucose, (DMEM, Invitrogen, Karlsruhe, Germany) supplemented with 10% fetal calf serum (FCS, PAA) and1 U/mL penicillin/streptomycin at 37 °C, 5% CO2.
The purified peptoids were dissolved in bidistilled water to yield a 2 mM stock solution and were further diluted with 10% DMEM to yield the respective incubation media. The cells were cultured as described above were incubated with the different peptoids at final concentrations of 1–10 µM. Cellular uptake of the peptoids was measured by live-cell imaging after 1 and 24 h as fixation would alter the intracellular distribution as described for other polycationic species.
Visualization of the peptoids was achieved by confocal microscopy using a Leica TCS-SP5 II, equipped with a DMI6000 microscope. The peptoids were excited at 561 nm using a DPSS laser. […] Fluorescence emission was measured at 417–468 nm for the detection of the nuclei, at 499–552 nm for the detection of the mitochondria, and 593–696 nm for the detection of the rhodamine B labeled peptoids. […]

In assay [1] the test system is mitochondria of HeLa cells. Description: Co-localization with the mitochondrial marker Mitotracker Green (Pearson's correlation of fluorescence profiles). Type of assay: cell-based, human. The note with it: live-cell confocal fluorescence imaging, co-staining with 100 nM Mitotracker Green, 37 °C.
Method: HeLa cells were treated with 1 and 10 µM of the corresponding peptoids for 1 and 24 h. […] However, for the better visualization of the organellar accumulation the incubation period was prolonged to 24 h. Co-localization experiments were performed by co-staining of the mitochondria with the mitochondrial marker Mitotracker Green^TM (Figure 5 and Figure 6).
By colocalizing the peptides with the mitochondrial marker Mitotracker Green^TM Pearson’s correlation coefficients (Rr) of the corresponding fluorescence profiles could be calculated reflecting mitochondrial specificity.
All procedures with mammalian cells were carried out under sterile conditions. […]
The purified peptoids were dissolved in bidistilled water to yield a 2 mM stock solution and were further diluted with 10% DMEM to yield the respective incubation media. […] Cellular uptake of the peptoids was measured by live-cell imaging after 1 and 24 h as fixation would alter the intracellular distribution as described for other polycationic species.
Visualization of the peptoids was achieved by confocal microscopy using a Leica TCS-SP5 II, equipped with a DMI6000 microscope. […] Fluorescence emission was measured at 417–468 nm for the detection of the nuclei, at 499–552 nm for the detection of the mitochondria, and 593–696 nm for the detection of the rhodamine B labeled peptoids. […]

With RhoB-Npmb-Nlys3-NH2 [compound 11], in the assay with HeLa cells, the Intracellular localization entry was “mitochondrial localization”. Besides, in assay [1], the “Pearson's correlation coefficient (Rr) of the fluorescence profiles of peptoid and Mitotracker Green, reflecting mitochondrial specificity” value is “+0.68”.

The record behind these values is paper PMC3816671, “Cell Penetrating Peptoids (CPPos): Synthesis of a Small Combinatorial Library by Using IRORI MiniKans” (Pharmaceuticals, 2012).
